{"source": "patent US20180235213A1", "about": "“PLANT HORMONE APPLICATION” (The State of Israel Ministry of Agriculture & Rural …, priority 2015, published 2018)", "system": "olive seedlings", "test": "Application via rigid tubes to olive seedlings under commercial nursery conditions", "type": "in vivo, Olea europaea L.", "details": "50 μM with HPC+glycerin", "method": "Experiments were performed in AGROGOLD nurseries under commercial nursery conditions, which include nethouse, 40% shed without temperature control. The tested formulations were applied in rigid tubes. […] The tube was sealed and fixed to the plant by cello tape. The tube was completely filled with ˜1 ml of the experimental formulation and then the top was covered with cotton (FIGS. 20A-20F). Each experiment included 10 olive plants for each treatment. The number of wake up buds was counted 75 days following application and the seedlings architecture, general growth and development were examined.\nThe bud growth effect of EGO10 (50 μM) or acetone control, each supplied together with HPC+glycerin on the stem of the olive cuttings was tested under the nursery conditions.", "data": [{"smiles": "CC1=C[C@H](O/C=C2\\Cc3c(n(C)c4ccccc34)C2=O)OC1=O", "note": "[EGO10]", "values": [{"measurement": "application site (bark and vascular system) after removal of the apparatus", "value": "unharmed and functional"}, {"measurement": "seedling outgrowth", "setting": "75 days", "value": "not inhibited"}, {"measurement": "number of wake up buds (bud outgrowth)", "setting": "rigid tubes, 75 days, vs acetone+HPC+glycerin", "value": "inhibits bud outgrowth significantly"}, {"measurement": "plant architecture", "setting": "control seedlings bushy", "value": "one or two leading branches"}]}]}
